# Values of other authors as cited in patent publication US9839609B2 (priority 2009, dated 2017).
# Experiments:
# [1] = chronic administration
# [2] = in vivo
# [3] = oral, rats
SMILES,dose chronically administered without any serious adverse effects [1],fraction of DMSO metabolized into MSM in the body [2],LD50 [3]
"C[S+](C)[O-] [DMSO, Dimethyl sulfoxide]",5 g/kg daily,Approximately 17%,
"CS(C)(=O)=O [MSM, Methylsulfonylmethane]",,,approximately 17 g/kg
